Reference: patent US12077503B2, “Substituted cyclic amides and their use as herbicides” (FMC CORPORATION, priority 2015, dated 2024)
Read-outs that look alike come from different tables or passages of the source.

Legend:
Format in all cases: in vivo
[1] = tested on: ragweed (common ragweed, Ambrosia elatior); assay: Test A preemergence; details: Ambrosia artemisiifolia, pre-emergence, 240 h, preemergence, 0 to 100 scale where 0 is no effect and 100 is complete control, read-out: Ragweed plant response rating; for pest or weed control at 125 g/ha: 125 g ai/ha, visual injury rating, approximately 10 d; for pest or weed control at 500 g/ha: 500 g ai/ha
How it was run: (§1)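 Compounds were formulated in a non-phytotoxic solvent mixture with surfactant and applied as a preemergence directed soil spray after seeding, or sprayed postemergence over plants 2 to 10 cm tall at the one- to two-leaf stage. Evaluation after about 10 d compared treated with untreated controls, using a scale from 0 (no effect) to 100 (complete control).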

[2] = tested on: barnyardgrass (Echinochloa crus-galli); assay: Test A preemergence; details: Echinochloa crus-galli, pre-emergence, 240 h, preemergence, 0 to 100 scale where 0 is no effect and 100 is complete control, read-out: Barnyardgrass plant response rating; for pest or weed control at 125 g/ha: 125 g ai/ha, visual injury rating, approximately 10 d; for pest or weed control at 500 g/ha: 500 g ai/ha
How it was run: as §1

Kochia (Kochia scoparia) = assay: Test A preemergence; details: Bassia scoparia, pre-emergence, 240 h, preemergence, 0 to 100 scale where 0 is no effect and 100 is complete control, read-out: Kochia plant response rating; for pest or weed control at 125 g/ha: 125 g ai/ha, visual injury rating, approximately 10 d; for pest or weed control at 500 g/ha: 500 g ai/ha
How it was run: as §1

[3] = tested on: pigweed (Amaranthus retroflexus); assay: Test A preemergence; details: Amaranthus retroflexus, pre-emergence, 240 h, preemergence, 0 to 100 scale where 0 is no effect and 100 is complete control, read-out: Pigweed plant response rating; for pest or weed control at 125 g/ha: 125 g ai/ha, visual injury rating, approximately 10 d; for pest or weed control at 500 g/ha: 500 g ai/ha
[4] = tested on: ryegrass, Italian (Italian ryegrass, Lolium multiflorum); assay: Test A preemergence; details: Lolium multiflorum, pre-emergence, 240 h, preemergence, 0 to 100 scale where 0 is no effect and 100 is complete control, read-out: Ryegrass, Italian plant response rating; for pest or weed control at 125 g/ha: 125 g ai/ha, visual injury rating, approximately 10 d; for pest or weed control at 500 g/ha: 500 g ai/ha
How it was run: as §1

[5] = tested on: giant foxtail (Setaria faberii); assay: Test A preemergence; details: Setaria faberi, pre-emergence, 240 h, preemergence, 0 to 100 scale where 0 is no effect and 100 is complete control, read-out: Foxtail, Giant plant response rating; for pest or weed control at 125 g/ha: 125 g ai/ha, visual injury rating, approximately 10 d; for pest or weed control at 500 g/ha: 500 g ai/ha
How it was run: as §1

[6] = tested on: ducksalad (Heteranthera limosa); assay: Test B flooded paddy test; details: Heteranthera limosa, 250 g ai/ha, Flood; 0 to 100 scale where 0 is no effect and 100 is complete control; read-out: Ducksalad plant response rating
How it was run: (§2)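 Greenhouse paddy pots with 2-leaf stage plants received compound by direct addition to floodwater 3 cm deep, kept at that level. Scored visually at 13–15 d versus controls (0 no effect; 100 complete control).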

rice (Oryra sativa) = assay: Test B flooded paddy test; details: Oryza sativa, 250 g ai/ha, Flood; 0 to 100 scale where 0 is no effect and 100 is complete control; read-out: Rice plant response rating
How it was run: as §2

[7] = tested on: sedge, umbrella (small-flower umbrella sedge, Cyperus difformis); assay: Test B flooded paddy test; details: Cyperus difformis, 250 g ai/ha, Flood; 0 to 100 scale where 0 is no effect and 100 is complete control; read-out: Sedge, Umbrella plant response rating
How it was run: as §2

[8] = tested on: barnyardgrass (Echinochloa crus-galli); assay: Test B flooded paddy test; details: Echinochloa crus-galli, 250 g ai/ha, Flood; 0 to 100 scale where 0 is no effect and 100 is complete control; read-out: Barnyardgrass plant response rating
How it was run: as §2

[9] = tested on: wheat (Triticum aestivum); assay: Test A postemergence; details: Triticum aestivum, post-emergence, 240 h; for plant injury at 125 g/ha: 125 g ai/ha, visual injury vs untreated controls after approx. 10 d, 0 = no effect, 100 = complete control, read-out: Wheat plant response rating (0 to 100 scale); for plant injury at 500 g/ha: 500 g ai/ha
How it was run: as §1

[10] = tested on: blackgrass (Alopecurus myosuroides); assay: Test A postemergence; details: Alopecurus myosuroides, post-emergence, 240 h; for pest or weed control at 125 g/ha: 125 g ai/ha, visual injury vs untreated controls after approx. 10 d, 0 = no effect, 100 = complete control, read-out: Blackgrass plant response rating (0 to 100 scale); for pest or weed control at 500 g/ha: 500 g ai/ha
How it was run: as §1

[11] = tested on: pigweed (Amaranthus retroflexus); assay: Test A postemergence; details: Amaranthus retroflexus, post-emergence, 240 h; for pest or weed control at 125 g/ha: 125 g ai/ha, visual injury vs untreated controls after approx. 10 d, 0 = no effect, 100 = complete control, read-out: Pigweed plant response rating (0 to 100 scale); for pest or weed control at 500 g/ha: 500 g ai/ha
How it was run: as §1

[12] = tested on: ryegrass, Italian (Italian ryegrass, Lolium multiflorum); assay: Test A postemergence; details: Lolium multiflorum, post-emergence, 240 h; for pest or weed control at 125 g/ha: 125 g ai/ha, visual injury vs untreated controls after approx. 10 d, 0 = no effect, 100 = complete control, read-out: Ryegrass, Italian plant response rating (0 to 100 scale); for pest or weed control at 500 g/ha: 500 g ai/ha
How it was run: as §1

[13] = tested on: giant foxtail (Setaria faberii); assay: Test A postemergence; details: Setaria faberi, post-emergence, 240 h; for pest or weed control at 125 g/ha: 125 g ai/ha, visual injury vs untreated controls after approx. 10 d, 0 = no effect, 100 = complete control, read-out: Foxtail, Giant plant response rating (0 to 100 scale); for pest or weed control at 500 g/ha: 500 g ai/ha
How it was run: as §1

SMILES	pest or weed control at 125 g/ha [1] [%]	pest or weed control at 500 g/ha [1] [%]	pest or weed control at 125 g/ha [2] [%]	pest or weed control at 500 g/ha [2] [%]	pest or weed control at 125 g/ha (Kochia (Kochia scoparia)) [%]	pest or weed control at 500 g/ha (Kochia (Kochia scoparia)) [%]	pest or weed control at 125 g/ha [3] [%]	pest or weed control at 500 g/ha [3] [%]	pest or weed control at 125 g/ha [4] [%]	pest or weed control at 500 g/ha [4] [%]	pest or weed control at 125 g/ha [5] [%]	pest or weed control at 500 g/ha [5] [%]	pest or weed control at 250 g/ha [6] [%]	pest or weed control at 250 g/ha (rice (Oryra sativa)) [%]	pest or weed control at 250 g/ha [7] [%]	pest or weed control at 250 g/ha [8] [%]	plant injury at 125 g/ha ([9]; postemergence) [%]	pest or weed control at 125 g/ha ([10]; postemergence) [%]	pest or weed control at 125 g/ha ([11]; postemergence) [%]	pest or weed control at 125 g/ha ([12]; postemergence) [%]	other results
Cc1ccc([C@H]2CCN(C)C(=O)[C@@H]2C(=O)Nc2cccc(Cl)c2F)cc1 [Compound 1223]	0	20	90	90	0	20	0	0	0	0	90	90	90	30	0	80	0	30	0	20	plant injury at 500 g/ha ([9]; postemergence, 0 to 100 scale, 0 is no effect, 100 is complete control, read-out: Wheat plant response rating): 30%; pest or weed control at 500 g/ha ([10]; postemergence, 0 to 100 scale, 0 is no effect, 100 is complete control, read-out: Blackgrass plant response rating): 50%; pest or weed control at 500 g/ha ([11]; postemergence, 0 to 100 scale, 0 is no effect, 100 is complete control, read-out: Pigweed plant response rating): 0%; pest or weed control at 500 g/ha ([12]; postemergence, 0 to 100 scale, 0 is no effect, 100 is complete control, read-out: Ryegrass, Italian plant response rating): 60%; pest or weed control at 125 g/ha ([13]; postemergence): 90%; pest or weed control at 500 g/ha ([13]; postemergence, 0 to 100 scale, 0 is no effect, 100 is complete control, read-out: Foxtail, Giant plant response rating): 90%
Cc1cc([C@H]2CNC(=O)[C@@H]2C(=O)Nc2ccccc2S(C)(=O)=O)ccc1Cl [Compound 1246]	40	60	60	80	60	80	0	0	0	50	50	70	100	0	0	0	0	0	0	0	plant injury at 500 g/ha ([9]; Postemergence, visual injury, 0 to 100 scale (0 no effect, 100 complete control), approx. 10 d, read-out: Plant response rating, Wheat): 40%; pest or weed control at 500 g/ha ([10]; Postemergence, visual injury, 0 to 100 scale (0 no effect, 100 complete control), approx. 10 d, read-out: Plant response rating, Blackgrass): 40%; pest or weed control at 500 g/ha ([11]; Postemergence, visual injury, 0 to 100 scale (0 no effect, 100 complete control), approx. 10 d, read-out: Plant response rating, Pigweed): 20%; pest or weed control at 500 g/ha ([12]; Postemergence, visual injury, 0 to 100 scale (0 no effect, 100 complete control), approx. 10 d, read-out: Plant response rating, Ryegrass, Italian): 0%; pest or weed control at 125 g/ha ([13]; postemergence): 20%; pest or weed control at 500 g/ha ([13]; Postemergence, visual injury, 0 to 100 scale (0 no effect, 100 complete control), approx. 10 d, read-out: Plant response rating, Foxtail, Giant): 20%
